# Entries after “also recorded” stand apart in the source; their conditions may differ.
# Experiments:
# C57BL/6N mice = assay: Elevated plus maze after bilateral NPS injection into CA1 of the VH; type: in vivo, mouse; conditions: 0.1 nmol NPS each side into CA1 of VH, 30 min
# Protocol: Animals were fixed in a stereotactic frame and maintained under isoflurane anesthesia (Forene® 100%, V/V; induction: 2.5%; maintenance: 1.5%; in O2; flow rate: 1 L/min). The mice received acute analgesic treatment with Metacam s.c. during surgery (0.5 mg/kg; in NaCl). 23 gauge stainless-steel guide cannulas were implanted in the CA1 region of the VH at the following coordinates: 3.1 mm posterior, ±3 mm lateral from bregma, and 2 mm ventral from the skull surface (Franklin and Paxinos, 2007). The guide cannulas were fixed with two screws and a two-component adhesive. For behavioural experiments, animals were implanted bilaterally for later bilateral injection, whereas for Cy3-NPS injections, implantation was performed unilaterally. The animals were allowed to recover for at least 6 days before starting the behavioural experiments. Substance infusions were carried out manually, on mice anesthetised by brief inhalation of isoflurane, using a 30 gauge injection cannula connected to a Tygon tube and a 10 μL Hamilton syringe. After infusion, the injection cannula was kept in place for additional 30 s to prevent substance outflow.
# Mice were injected bilaterally either with 0.1 nmol NPS in 0.5 μL ACSF for each side or with 0.5 μL of ACSF for each side. 30 min after injection, three behavioural assays [open field, dark-light test, and elevated plus maze (EPM)] were performed sequentially in the order mentioned. Each test lasted 5 min, with a 5 min break in between, as described in Kromer et al., 2005 and Bunck et al., 2009. Animal behaviour was videotaped and relevant parameters were analysed using the tracking software ANY-maze version 4.30 (Stoelting, Wood Dale, Ill., USA). Mice were sacrificed 24 h after completion of behavioural assays and the locations of the guide cannulas were checked in histological cryosections of 40 μm counterstained with DAPI. Mice with deviating injection sites were excluded from further analysis.
# NPSR [1] = conditions: cited from earlier work
# NPSR [2] = biological target: T1, NPSR (Mus musculus, UniProt Q8BZP8); conditions: rodents, ICV injection, US 2010/0056455; cited from earlier work
# T1 construct: host or cells: rodent brain in vivo
# T1 sequence (Q8BZP8 1-371): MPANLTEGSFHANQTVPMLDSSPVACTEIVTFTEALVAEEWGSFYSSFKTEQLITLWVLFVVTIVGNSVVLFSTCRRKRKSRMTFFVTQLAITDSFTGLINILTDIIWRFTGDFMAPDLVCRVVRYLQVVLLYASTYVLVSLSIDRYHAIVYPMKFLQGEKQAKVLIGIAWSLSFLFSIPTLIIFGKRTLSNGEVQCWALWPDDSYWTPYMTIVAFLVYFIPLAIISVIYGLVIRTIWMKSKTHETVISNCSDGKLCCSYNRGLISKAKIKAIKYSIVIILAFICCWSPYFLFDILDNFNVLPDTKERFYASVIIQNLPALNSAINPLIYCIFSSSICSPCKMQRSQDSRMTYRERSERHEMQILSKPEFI
# [3] = test system: evoked neuronal activity flow from the dentate gyrus to area CA1; assay: Voltage-sensitive dye imaging (VSDI) in VH slices; set-up: species or system mouse; conditions: bath application of NPS 1 μM
# Protocol: According to Maggio and Segal (2007) and Fanselow and Dong (2010), VSDI experiments were conducted in the VH. Horizontal brain slices (350 μm-thick) were prepared as described in Refojo et al., 2011 and/or von Wolff et al., 2011). Only the first two slices from the ventral surface of the brain in which the CA1 region was clearly visible were used for the measurements. Staining of slices with the voltage-sensitive dye Di-4-ANEPPS and VSDI were carried out at room temperature (23-25° C.). For staining, slices were kept for 15 min in carbogenated (95% O2/5% CO2) ACSF containing Di-4-ANEPPS (7.5 μg/mL; <0.1% DMSO). The ACSF (pH 7.4) consisted of (in mM): 125 NaCl, 2.5 KCl, 25 NaHCO3, 1.25 NaH2PO4, 2 CaCl2, 1 MgCl2, and 25 glucose. Afterwards, slices were stored for at least 30 min in pure carbogenated ACSF. In the recording chamber, slices were continuously superfused with carbogenated ACSF (3 mL/min flow rate). VSDI and data analysis were performed using the MiCAM02 hard- and software package (BrainVision, Tokyo, Japan). The tandem-lens fluorescence microscope was equipped with the MiCAM02-HR camera and the 2× and 1× lens at the objective and condensing side, respectively. Acquisition settings were: 88×60 pixels frame size, 36.4×40.0 μm pixel size, and 2.2 ms sampling time. To reduce noise, four acquisitions subsequently recorded at intervals of 5 s were averaged. Neuronal activity was evoked by square pulse electrical stimuli (200 μs, 15-20 V) delivered to the dentate gyrus granule cell layer via a custom-made monopolar tungsten electrode (Teflon-insulated to the tip of 75 μm diameter). From recorded signals, the fractional change in fluorescence (ΔF/F) was calculated. For all quantifications, ΔF/F values were spatially and temporally smoothed using a 3×3×3 average filter. VSDI signals presented in images were smoothed with a 5×5×3 average filter. Pixelation of images was reduced by the interpolation function of the MiCAM02 software. […]
substance,measurement,setting,value
"neuropeptide S (SFRNGVGSGVKKTSFRRAKQ; Neuropeptide S; UniProt P0C0P7 70-89, looked up) [NPS, peptide agonist of neuropeptide S receptor (NPSR); native NPS, rat, from Bachem]",anxiety-related behaviour on the EPM,C57BL/6N mice,significant anxiolytic effect; also recorded: decreased anxiety-related behaviour
same,increase in the percentage of time spent on the open arms compared to vehicle-treated mice,C57BL/6N mice,28%
same,locomotion on the EPM,C57BL/6N mice,did not affect locomotion; also recorded: without affecting locomotion
same,response of NPSR-KO mice to NPS treatment,"NPSR [1]; NPSR-KO mice, Duangdao et al., 2009",resistant
same,anxiolytic effects,"NPSR [1]; rodents, intracerebral and ICV injection",strong anxiolytic effects
same,locomotor activity and wakefulness,NPSR [2],increased locomotor activity and wakefulness
same,activity flow from the dentate gyrus to the CA1 subfield,[3],rapidly weakened
same,FDS peak amplitudes,"[3]; dentate hilus, CA3 region, area CA1","reduced the amplitude of FDSs in the dentate hilus, the CA3 region, and area CA1; also recorded: decreased FDS peak amplitudes"

# From US20160279204A1, “PEPTIDES AND PHARMACEUTICAL COMPOSITIONS FOR USE IN THE TREATMENT BY NASAL ADMINISTRATION OF PATIENTS SUFFERING FROM ANXIETY AND SLEEP DISORDERS” (MAX-PLANCK-GESELLSCHAFT ZUR FÖRDERUNG DER WISSENSCHAFT E.V., priority 2011, published 2016)
